Source: US20130274834A1, “Method for the treatment of skin tissues” (priority 2006, published 2013)
Several values for one entry are separate records, joined by “and”; a condition that tells them apart may be missing. Equal entries are not always repeated. Entries after “also recorded” stand apart in the source; their conditions may differ.

What was measured:
Assay type in all cases: in vivo, human
[1] = system: facial papulo-pustular inflammatory acne lesions; assay: Split-face radiant IR skin preparation prior to PDT for inflammatory type acne of the face (Example 6); settings: untreated side (no IR); one month later
Procedure: A person was treated for facial papulo-pustular inflammatory acne lesions. After performing an acetone scrub on the treatment area, a radiant IR skin preparation was done on the right side of their face (970 nm, 80 mW/cm2, for 30 min). Then 5-aminolevulinic acid (Levulan™ Kerastick™) was applied to the skin and left for 90 min incubation time. […] Radiant IR skin preparation allows for a reduction in the number of PDT treatments necessary for significant clinical improvements.

[2] = system: cystic acne lesions; assay: Split face or split back pre-PDT radiant IR study, eleven cystic acne patients (Example 7); settings: one month after PDT; IR 970 nm 50 mW/cm2 15 min prior to 5-ALA; most patients
Procedure: Study Design/Materials and Methods: Eleven (11) patients were enrolled in a split face or split back (pre-treated side versus control) study with a pre-approved IRB protocol. […] Lesion count was assessed both manually and by digital photography before and 4 weeks after one PDT procedure. Prior to the application of 5-ALA, one side of the face or back was pre-treated with radiant IR [CW LEDs emitting @ λ970 nm, irradiance 50 mW/cm2 for 15 minutes, total fluence 45 J/cm2], while the other half was used as control. PDT was then performed on the entire surface (face or back).

[3] = system: inflammatory acne lesions; assay: Randomized, controlled, rater-blinded split face/back trial of IR pre-treatment plus ALA-PDT in inflammatory acne (Example 9); set-up: key to Clinical Global Severity Assessment at Week-4, Median: 0: Clear; 1: Almost clear; 2: Mild; 3: Moderate; 4: Severe; 5: Very Severe; settings: for Clinical Global Severity Assessment at Week-4, Median: six-point rating scale, grade 0-5; for Change from Baseline in Lesion Counts, Total Inflammatory lesions, Median (reduction): week-4 (one month after PDT)
Procedure: One side was pre-treated for 15 minutes with radiant IR light emitting diode (LED) (970 nm), while the other side was used as control. ALA was then applied after which PDT LED (630 nm) was performed on the entire face or back surface. Blinded lesion counts and clinical global assessment of severity were performed based on digital photographs before and four weeks after the PDT procedure.
Inclusion criteria included patients with skin type I to III according to the Fitzpatrick Classification System [^xxviii]. Exclusion criteria comprised patients taking cortisone (Prednisone), anticoagulant therapy, or any drug known to increase photosensitivity. In addition, during the 12 months preceding the study, patients were required not to have used isotretinoin (Accutane), or applied topical steroids on the site to be treated. Moreover, oral antibiotics use, laser or topical anti-acne medication at the to-be-treated site were not permitted for eight weeks prior to the study. Patients gave written informed consent to participate in this trial in compliance with the US Code of Federal Regulations dealing with the conduct of clinical studies (21 CFR including parts 50 and 56 concerning informed consent and IRB regulations). The study was conducted according to Good Clinical Practice Guidelines and the principles of the Declaration of Helsinki, and was approved by the Institutional Review Board Services (Div. 1373737 Toronto, Canada).
Patients were assigned to a split face or split back group to allow for within-patient assessments of clinical effects. Assignment was based on the patient's problem area. One side was randomly (using a coin flip) assigned to receive IR pre-treatment and ALA-PDT, and the other ALA-PDT alone to serve as control. The IR pre-treatment consisted of a 15 minute exposure to radiant IR LED at 970 nm ([…] using the LumiPhase-R/IR™, OPUSMED Inc. Montreal, Canada) to reach peak H2O absorption inside-out temperature of 45° C. Papillary dermis temperature was monitored with a needle probe throughout the session and up to 40 minutes (Type-T thermocouple, Omega, Montreal, Canada). ALA (20% Levulan Kerastick, DUSA Pharmaceuticals, USA) was then applied on both sides for 60 minutes, after which PDT with LED at 630 nm (50 mW/cm^2, 70 J/cm^2) was performed on the entire face or back surface for a duration of 23 minutes (LumiPhase-R/B™, OPUSMED Inc. Montreal, Canada). No cooling method was used. Digital photographs (Canon Dual Flash EOS 10D, Canon, Tokyo, Japan with EX SIGMA 50 mm 1:2.8 macro lens, Sigma, Aizu, Japan) were taken prior to and four weeks after the procedure. Each photograph was taken maintaining identical ambient lighting, pose and camera angles.
Acne lesion counts were performed before and four weeks after the PDT treatment. All types of inflammatory (papules, pustules, nodules) and noninflammatory (open and closed comedones) acne lesions were counted. Lesion counts were performed based on the digital photographs by two non-treating physicians who were blinded to the treatment regimen (IR-treated or control side) and to the timing of the photographs (baseline or post-treatment).
The global severity of acne was assessed at the end of the study by the […] non-treating physicians, as described above, using a six-point rating scale (Table 1). Clinical success was defined by grades 0 (clear) or 1 (almost clear).
Adverse reactions were monitored throughout the study. Signs of erythema, oedema, scaling/crusting, bronzing, textural changes, hyperpigmentation, and hypopigmentation were documented during the time period of the clinical trial.
Cronbach's alpha was calculated to assess inter-rater reliability in assessments. Reliability was deemed acceptable if Cronbach alpha was ≧7 allowing raters' assessments to be combined for analysis. The primary outcome variable was the percent change from baseline in inflammatory lesion count measured four weeks post-treatment. […]

## NCC(=O)CCC(=O)O [5-aminolevulinic acid]
[1]
  PDT sessions needed for similar results: needed an additional PDT session
[2]
  number of cystic lesions, pre-treated versus control side: statistically significant decrease
[3]; ALA-PDT with LED 630 nm, with or without IR pre-treatment, listed as ALA
  tolerability of the treatment: overall well tolerated; also recorded: well tolerated with no significant adverse events
[3]; ALA-PDT with or without IR pre-treatment
  treatment-related adverse effects: No unusual treatment-related adverse effects were observed
[3]; Control side (ALA-PDT alone)
  Clinical Global Severity Assessment at Week-4, Median: 2
[3]; Control side (ALA-PDT alone), listed as ALA
  Change from Baseline in Lesion Counts, Total Inflammatory lesions, Median (reduction): 38% and 37.86%
[3]; IR-Treated side
  Clinical Global Severity Assessment at Week-4, Median: 1
[3]; IR-Treated side, listed as ALA
  Change from Baseline in Lesion Counts, Total Inflammatory lesions, Median (reduction): 73% and 73.21%
[3]; IR-treated versus control side, week-4
  additional benefit of IR-treated side in reduction of inflammatory lesion count: 35%
[3]; most patients
  time to disappearance of slight erythema post-PDT: ≤ 48 h
